Experimental data taken from paper PMC9597602, “Metal Complexes as Antifungals? From a Crowd-Sourced Compound Library to the First In Vivo Experiments” (JACS Au, 2022).
“And” between values parts separate entries of the source, which are not always exact repeats. Equal values may be shown once. Read-outs that look alike come from different tables or passages of the source. Starred links: 1 amine or outer side, 2 acyl side, 3 side chain; linkers in the order of their positions; H or OH if unused. Positions of bridges follow the written chain, without caps; N, C: chain ends. Non-standard residues stand in square brackets, D forms with d. Residues, ends and D or L forms follow the SMILES beside them. *: point of attachment. hTyr(3S-OH,4S-OH,3'-OSO3H) = N[C@H](C(=O)O)[C@H](O)[C@@H](O)c1ccc(O)c(OS(=O)(=O)O)c1; Orn(4R-OH,5R-OH) = O=C([C@H](C[C@@H](O)[C@@H](O)N[*:3])N[*:1])[*:2]; Pro(3S-OH,4S-Me) = C[C@H]1CN[C@H](C(=O)O)[C@H]1O; X1 = CCCCCOc1ccc(-c2cc(-c3ccc(C(=O)*)cc3)no2)cc1; Gln(3R-OH) = NC(=O)C[C@@H](O)[C@H](N)C(=O)O; Hyp = O=C(O)[C@@H]1C[C@@H](O)CN1

Columns and labels:
[1] = tested on: Candida glabrata ATCC 90030 NCCLS 84; experiment: Antifungal MIC assay, extended panel; type: cell-based; conditions: Nakaseomyces glabratus, ATCC90030, read-out: MIC* Candida glabrata ATCC 90030
[2] = tested on: Candida tropicalis ATCC 750; experiment: Antifungal MIC assay, extended panel; type: cell-based; conditions: Candida tropicalis, ATCC750, read-out: MIC* Candida tropicalis ATCC 750
[3] = tested on: Cryptococcus neoformans H99 ATCC 208821 type strain; experiment: Antifungal MIC assay; type: cell-based
Outline: (§1)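 Yeasts grown 3 days on YPD agar at 30 °C; suspension diluted in YNB medium to a final 2.5 × 10^3 CFU/mL and exposed to compound at 35 °C for 36 h without shaking. MIC taken as lowest concentration giving ≥80% growth inhibition (CLSI M27 score 0–1).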

[4] = tested on: Candida auris CBS12373 KCTC 17810; experiment: Antifungal MIC assay, extended panel; type: cell-based; conditions: read-out: MIC* Candida auris CBS12373
Outline: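 Yeast was grown for 3 days at 30 °C on YPD agar. Five colonies were suspended to 1 × 10^6 to 5 × 10^6 CFU/mL, checked by OD530, diluted in YNB medium, and dispensed onto compound-loaded 384-well NBS plates at 2.5 × 10^3 CFU/mL in 50 μL. Plates were covered and incubated without shaking at 35 °C for 36 h to determine MIC.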

[5] = tested on: Candida auris CBS10913 JCM 15448; experiment: Antifungal MIC assay, extended panel; type: cell-based; conditions: read-out: MIC* Candida auris CBS10913
Outline: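 Yeast strains were grown on YPD agar at 30 °C for 3 days. Five colonies were suspended to 1 × 10^6 to 5 × 10^6 CFU/mL (by OD530), diluted in YNB medium, and dispensed into compound-containing 384-well NBS plates to 2.5 × 10^3 CFU/mL in 50 μL. Covered plates were held at 35 °C for 36 h without shaking, and MIC was determined by broth dilution.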

[6] = tested on: Cryptococcus deuterogattii ATCC 32609 VGII; experiment: Antifungal MIC assay, extended panel; type: cell-based; conditions: Cryptococcus deuterogattii, ATCC32609, read-out: MIC* Cryptococcus deuterogattii ATCC 32609
[7] = tested on: Candida albicans ATCC 90028 NCCLS11; experiment: Antifungal MIC assay; type: cell-based
Outline: as §1

[8] = tested on: Cryptococcus deuterogattii CBS7750 VGII; Serotype B; experiment: Antifungal MIC assay, extended panel; type: cell-based; conditions: Cryptococcus deuterogattii, CBS7750, read-out: MIC* Cryptococcus deuterogattii CBS7750
[9] = tested on: Pseudomonas aeruginosa ATCC 27853 QC control strain; experiment: CO-ADD antibacterial MIC assay; type: cell-based; conditions: initial CO-ADD dose-response screening; ≥80% growth inhibition
Procedure: (§2) For the all the bacterial assays, each bacterial strain was cultured in cation-adjusted Mueller Hinton broth (CAMHB; Bacto Laboratories 212322) at 37 °C overnight. A sample of each culture was then diluted 40-fold in fresh CAMHB and incubated at 37 °C for 1.5–3 h. The resultant mid-log phase cultures were diluted with CAMHB (CFU/mL measured by OD600) and then added to each well of the compound-containing plates (384-well non-binding surface (NBS) plates; Corning CLS3640), giving a cell density of 5 × 10^5 CFU/mL and a total volume of 50 μL. Plates were covered and incubated at 37 °C for 18 h without shaking. Inhibition of bacterial growth was determined by measuring the absorbance at 600 nm (OD600) using media only as negative control and bacteria without inhibitors as positive control. MIC values were determined as the lowest concentration at which the growth was inhibited by ≥80% (equivalent to no visible growth by the eye). Colistin sulfate (Sigma C4461) and vancomycin HCl (Sigma 861987) were used as internal controls on each plate for Gram-negative and Gram-positive bacteria, respectively. All compounds were tested as two technical replicates in two independent biological assays, n = 4 final data.

[10] = tested on: Acinetobacter baumannii ATCC 19606 type strain; experiment: CO-ADD antibacterial MIC assay; type: cell-based; conditions: initial CO-ADD dose-response screening; ≥80% growth inhibition
Procedure: as §2

[11] = tested on: methicillin-resistant Staphylococcus aureus ATCC 43300; experiment: CO-ADD antibacterial MIC assay; type: cell-based; conditions: initial CO-ADD dose-response screening; ≥80% growth inhibition
Procedure: as §2

[12] = tested on: Escherichia coli ATCC 25922 FDA control strain; experiment: CO-ADD antibacterial MIC assay; type: cell-based; conditions: initial CO-ADD dose-response screening; ≥80% growth inhibition
Procedure: as §2

[13] = tested on: Candida glabrata ATCC 90030 NCCLS 84; experiment: Antifungal MIC assay, extended panel; type: cell-based; conditions: extended panel, second batch; ≥80 or ≥50% inhibition
Procedure: (§3) For the fungal assays, both fungi (yeast) strains were cultured for 3 days on Yeast Extract-Peptone Dextrose (YPD; Becton Dickinson 242720) agar at 30 °C. A yeast suspension of 1 × 10^6 to 5 × 10^6 CFU/mL (as determined by OD530) was prepared from five colonies from the agar plates, subsequently diluted with Yeast Nitrogen Base media (YNB; Becton Dickinson 233520), and added to each well of the compound containing plates (384-well plates, NBS; Corning CLS3640), giving a final cell density of 2.5 × 10^3 CFU/mL and a total volume of 50 μL. Plates were covered and incubated at 35 °C for 36 h without shaking. […] MIC values were recorded as the lowest concentration at which the growth was inhibited by ≥80%, equivalent to ″optically clear-to-slightly hazy″ or MIC score of 0–1 as per CLSI guidelines M27 Reference Method for Broth Dilution Antifungal Susceptibility Testing of Yeasts. […] Fluconazole (Sigma F8929) was used as internal control on each plate for all strains. All compounds were tested as two technical replicates in two to four independent biological assays, n = 4–8 final data.

[14] = tested on: Cryptococcus deuterogattii CBS7750 VGII; Serotype B; experiment: Antifungal MIC assay, extended panel; type: cell-based; conditions: extended panel, second batch; ≥80 or ≥50% inhibition
Procedure: as §3

[15] = tested on: Candida tropicalis ATCC 750; experiment: Antifungal MIC assay, extended panel; type: cell-based; conditions: extended panel, second batch; ≥80 or ≥50% inhibition
Procedure: as §3

[16] = tested on: Cryptococcus deuterogattii ATCC 32609 VGII; experiment: Antifungal MIC assay, extended panel; type: cell-based; conditions: extended panel, second batch; ≥80 or ≥50% inhibition
Procedure: as §3

human red blood cells = type: cell-based
Procedure: Human whole blood (Australian Red Cross) was washed three times with 3 vol of 0.9% NaCl and resuspended in a concentration of 0.5 × 10^8 cells/mL, determined by a manual cell count in a Neubauer hemocytometer. […] After incubation, the plates were centrifuged at 1000g for 10 min to pellet cells and debris; 25 μL of the supernatant was then transferred to reading plates (384-well, polystyrene plated (PS), Corning CLS3680), with hemolysis determined by measuring the supernatant absorbance at […] (OD405) using cells without inhibitors as negative control and cells with 1% Triton X-100 (Sigma T8787) as positive control. […] Melittin (Sigma M2272) was used as internal control on each plate.

[17] = tested on: HEK-293 human embryonic kidney cells ATCC CRL-1573
Procedure: The cells were incubated together with the compounds for 20 h at 37 °C in 5% CO2. […] Tamoxifen (Sigma T5648) was used as internal control on each plate.

[18] = initial CO-ADD dose-response screening, ≥80% growth inhibition
[19] = extended panel, second batch, ≥80 or ≥50% inhibition

Q: How did the MIC [1] turn out when `CCCCCOc1ccc(-c2cc(-c3ccc(C(=O)N[C@H]4C[C@@H](O)[C@@H](O)NC(=O)[C@@H]5[C@@H](O)[C@@H](C)CN5C(=O)[C@H]([C@H](O)CC(N)=O)NC(=O)[C@H]([C@H](O)[C@@H](O)c5ccc(O)c(OS(=O)(=O)O)c5)NC(=O)[C@@H]5C[C@@H](O)CN5C(=O)[C@H]([C@@H](C)O)NC4=O)cc3)no2)cc1` [Micafungin, reference compound] (X1-[Orn(4R-OH,5R-OH)]T[Hyp][hTyr(3S-OH,4S-OH,3'-OSO3H)][Gln(3R-OH)][Pro(3S-OH,4S-Me)]; lactam 1-C) was run?
A: 4 µg/mL to 32 µg/mL and 4.45 µM to 35.7 µM

Q: And the MIC [2]?
A: 0.008 µg/mL to 0.063 µg/mL and 0.009 µM to 0.07 µM

Q: And the MIC ([3]; Cryptococcus neoformans, ATCC208821, read-out: MIC* Cryptococcus neoformans ATCC 208821)?
A: 0.015 µg/mL to 0.063 µg/mL and 0.017 µM to 0.07 µM

Q: What about the MIC ([4]; Candidozyma auris) of the same molecule?
A: 2 µg/mL and 2.23 µM

Q: And the MIC ([5]; Candidozyma auris)?
A: ≤ 0.001 µg/mL and ≤ 0.0014 µM

Q: What about the MIC [6] of the same molecule?
A: 0.016 µg/mL to 0.125 µg/mL and 0.017 µM to 0.139 µM

Q: What about the MIC ([7]; Candida albicans, ATCC90028, read-out: MIC* Candida albicans ATCC 90028) of the same molecule?
A: ≤ 0.0005 µg/mL and ≤ 0.0007 µM

Q: And the MIC [8]?
A: 0.06 µg/mL to 0.125 µg/mL and 0.07 µM to 0.139 µM

Q: Which “MIC Pa” value [9] does the source give for `C1=CCCC=CCC1.[Cl][Pd][Cl]` [Pd1] here?
A: >20 µM

Q: And the “MIC Ab” value [10]?
A: >20 µM

Q: And the “MIC MRSA (Sa)” value [11]?
A: >20 µM

Q: What about the “MIC Ec” value [12] of the same molecule?
A: >20 µM

Q: And the MIC ([3]; extended panel, second batch, ≥80 or ≥50% inhibition, read-out: MIC* Cryptococcus neoformans ATCC 208821)?
A: ≤0.78 µM

Q: What about the “MIC Cn” value [3, 18] of the same molecule?
A: 0.63 µM

Q: And the MIC [13]?
A: 3.12 µM

Q: And the MIC [14]?
A: ≤0.78 µM

Q: What about the MIC [15] of the same molecule?
A: 6.25 µM

Q: What about the “MIC Cryptococcus deuterogattii ATCC 32609” value [16] of the same molecule?
A: 1.56 to 3.12 µM

Q: What about the MIC [4, 19] of the same molecule?
A: ≤0.78 µM

Q: And the MIC [5, 19]?
A: ≤0.78 µM

Q: And the “RBC HC10” value (human red blood cells; initial CO-ADD screening, 1 h, 10% hemolysis)?
A: >20 µM

Q: What about the “RBC HC10” value (human red blood cells; ranges obtained upon retesting, new batch) of the same molecule?
A: 10 µM

Q: And the MIC ([7]; extended panel, second batch, ≥80 or ≥50% inhibition, read-out: MIC* Candida albicans ATCC 90028)?
A: 3.12 µM

Q: What about the “MIC Ca” value [7, 18] of the same molecule?
A: 1.25 µM

Q: What about the CC50 ([17]; read-out: HEK293 CC50, ranges obtained upon retesting, new batch) of the same molecule?
A: > 100 µM

Q: What about the CC50 ([17]; read-out: HEK CC50, initial CO-ADD screening, 20 h) of the same molecule?
A: > 20 µM

Q: What about the “cytotoxicity: none up to stated concentration” value ([17]; retest) of the same molecule?
A: > 100 µM
